Data as given in ChEMBL document CHEMBL4118101 (Bioorg Med Chem, 2018).
≈ marks a conversion by molar mass, not a printed value.

What was measured:
Candida parapsilosis [1] = assay: Antifungal activity against Candida parapsilosis isolate CP1 measured after 48 hrs by CLSI M27-A3 protocol based method; type: functional; conditions: for MIC: Lodderomyces parapsilosis, isolate CP1, 48 h
Candida albicans [2] = assay: Antifungal activity against Candida albicans ATCC 64124 measured after 48 hrs by CLSI M27-A3 protocol based method; type: functional
Candida albicans [3] = assay: Antifungal activity against fluconazole/ITC-resistant Candida albicans ATCC MYA-1237 measured after 48 hrs by CLSI M27-A3 protocol based method; type: functional; conditions: Candida albicans, ATCC MYA-1237, 48 h; read-out: MIC
Candida parapsilosis [4] = assay: Antifungal activity against Candida parapsilosis ATCC 22019 measured after 48 hrs by CLSI M27-A3 protocol based method; type: functional; conditions: for MIC: Lodderomyces parapsilosis, ATCC 22019, 48 h
Candida albicans [5] = assay: Antifungal activity against fluconazole/ITC-resistant Candida albicans ATCC 90819 measured after 48 hrs by CLSI M27-A3 protocol based method; type: functional
Cryptococcus neoformans [6] = assay: Antifungal activity against Cryptococcus neoformans isolate CN3 measured after 48 hrs by CLSI M27-A3 protocol based method; type: functional
Aspergillus terreus = assay: Antifungal activity against Aspergillus terreus ATCC MYA-3633 measured after 48 hrs by CLSI M38-A2 protocol based method; type: functional; conditions: ATCC MYA-3633, 48 h
Nakaseomyces glabratus [7] = assay: Antifungal activity against Candida glabrata isolate CG2 measured after 48 hrs by CLSI M27-A3 protocol based method; type: functional
Candida albicans [8] = assay: Antifungal activity against Candida albicans ATCC 10231 measured after 48 hrs by CLSI M27-A3 protocol based method; type: functional; conditions: ATCC 10231, 48 h
Candida parapsilosis [9] = assay: Antifungal activity against Candida parapsilosis isolate CP3 measured after 48 hrs by CLSI M27-A3 protocol based method; type: functional; conditions: for MIC: Lodderomyces parapsilosis, isolate CP3, 48 h
Candida albicans [10] = assay: Antifungal activity against fluconazole/ITC-resistant Candida albicans ATCC MYA-1003 measured after 48 hrs by CLSI M27-A3 protocol based method; type: functional; conditions: Candida albicans, ATCC MYA-1003, 48 h; read-out: MIC
Aspergillus flavus = assay: Antifungal activity against Aspergillus flavus ATCC MYA-3631 measured after 48 hrs by CLSI M38-A2 protocol based method; type: functional; conditions: ATCC MYA-3631, 48 h
Nakaseomyces glabratus [11] = assay: Antifungal activity against Candida glabrata isolate CG3 measured after 48 hrs by CLSI M27-A3 protocol based method; type: functional
Candida albicans [12] = assay: Antifungal activity against fluconazole/ITC-susceptible Candida albicans ATCC MYA-2876 measured after 48 hrs by CLSI M27-A3 protocol based method; type: functional; conditions: for MIC: Candida albicans, ATCC MYA-2876, 48 h
Pichia kudriavzevii = assay: Antifungal activity against Candida krusei ATCC 6258 measured after 48 hrs by CLSI M27-A3 protocol based method; type: functional; conditions: for MIC: Pichia kudriavzevii, ATCC 6258, 48 h
Candida albicans [13] = assay: Antifungal activity against fluconazole/ITC-susceptible Candida albicans ATCC MYA-2310 measured after 48 hrs by CLSI M27-A3 protocol based method; type: functional
Nakaseomyces glabratus [14] = assay: Antifungal activity against Candida glabrata isolate CG1 measured after 48 hrs by CLSI M27-A3 protocol based method; type: functional
Cryptococcus neoformans [15] = assay: Antifungal activity against Cryptococcus neoformans isolate CN2 measured after 48 hrs by CLSI M27-A3 protocol based method; type: functional
Nakaseomyces glabratus [16] = assay: Antifungal activity against Candida glabrata ATCC 2001 measured after 48 hrs by CLSI M27-A3 protocol based method; type: functional, CBS 138
Aspergillus nidulans = assay: Antifungal activity against Aspergillus nidulans ATCC 38163 measured after 48 hrs by CLSI M38-A2 protocol based method; type: functional; conditions: ATCC 38163, 48 h
Cryptococcus neoformans [17] = assay: Antifungal activity against Cryptococcus neoformans isolate CN1 measured after 48 hrs by CLSI M27-A3 protocol based method; type: functional; conditions: isolate CN1, 48 h
Candida parapsilosis [18] = assay: Antifungal activity against Candida parapsilosis isolate CP2 measured after 48 hrs by CLSI M27-A3 protocol based method; type: functional; conditions: for MIC: Lodderomyces parapsilosis, isolate CP2, 48 h
Candida albicans [19] = assay: Antifungal activity against Candida albicans ATCC 10231 measured after 48 hrs in presence of 10% FBS by CLSI M27-A3 protocol based method; type: functional; conditions: Candida albicans, ATCC 10231, 48 h
[20] = Candida albicans, ATCC 64124, 48 h, read-out: MIC
[21] = Candida albicans, ATCC 90819, 48 h, read-out: MIC
[22] = Cryptococcus neoformans, isolate CN3, 48 h, read-out: MIC
[23] = Nakaseomyces glabratus, isolate CG2, 48 h, read-out: MIC
[24] = Nakaseomyces glabratus, 48 h, read-out: MIC
[25] = Candida albicans, ATCC MYA-2310, 48 h, read-out: MIC
[26] = Cryptococcus neoformans, isolate CN2, 48 h, read-out: MIC
[27] = Nakaseomyces glabratus, CBS 138, 48 h, read-out: MIC

SMILES | MIC (Candida parapsilosis [1]) [µM] | MIC (Candida albicans [2]; [20]) [µM] | MIC (Candida albicans [3]) [µM] | MIC (Candida parapsilosis [4]) [µM] | MIC (Candida albicans [5]; [21]) [µM] | MIC (Cryptococcus neoformans [6]; [22]) [µM] | MIC (Aspergillus terreus) [µM] | MIC (Nakaseomyces glabratus [7]; [23]) [µM] | MIC (Candida albicans [8]) [µM] | MIC (Candida parapsilosis [9]) [µM] | MIC (Candida albicans [10]) [µM] | MIC (Aspergillus flavus) [µM] | MIC (Nakaseomyces glabratus [11]; [24]) [µM] | MIC (Candida albicans [12]) [µM] | MIC (Pichia kudriavzevii) [µM] | MIC (Candida albicans [13]; [25]) [µM] | MIC (Nakaseomyces glabratus [14]; [24]) [µM] | MIC (Cryptococcus neoformans [15]; [26]) [µM] | MIC (Nakaseomyces glabratus [16]; [27]) [µM] | MIC (Aspergillus nidulans) [µM] | other results
CCCCCCN(CCCCCC)CC(O)(Cn1cncn1)c1ccc(F)cc1F (centres undefined) | > 74.1 | > 74.1 | > 74.1 | 74.1 (≈ 31.3 µg/mL) | > 74.1 | 37.1 (≈ 15.7 µg/mL) | > 74.1 | > 74.1 | > 74.1 | > 74.1 | > 74.1 | > 74.1 | > 74.1 | > 74.1 | > 74.1 | > 74.1 | > 74.1 | > 74.1 | > 74.1 | > 74.1 | MIC (Cryptococcus neoformans [17]): > 74.1 µM; MIC (Candida parapsilosis [18]): > 74.1 µM
C[C@@H]1[C@H](O)[C@@H](C)/C=C/C=C/C=C/C=C/C=C/C=C/C=C/[C@H](O[C@@H]2O[C@H](C)[C@@H](O)[C@H](N)[C@@H]2O)C[C@@H]2O[C@](O)(C[C@@H](O)C[C@@H](O)[C@H](O)CC[C@@H](O)C[C@@H](O)CC(=O)O[C@H]1C)C[C@H](O)[C@H]2C(=O)O [AMPHOTERICIN B] | – | – | – | 2.1 (≈ 1.94 µg/mL) | 1.1 (≈ 1.02 µg/mL) | – | – | – | – | – | – | – | – | 2.1 (≈ 1.94 µg/mL) | – | 2.1 (≈ 1.94 µg/mL) | – | – | 2.1 (≈ 1.94 µg/mL) | – | MIC (Candida albicans [19]): 7.8 µg/mL
OCCCCCCNCC(O)(Cn1cncn1)c1ccc(F)cc1F (centres undefined) | 88.3 (≈ 31.3 µg/mL) | > 88.3 | > 88.3 | > 88.3 | 88.3 (≈ 31.3 µg/mL) | > 88.3 | > 88.3 | > 88.3 | > 88.3 | 88.3 (≈ 31.3 µg/mL) | > 88.3 | > 88.3 | > 88.3 | 88.3 (≈ 31.3 µg/mL) | > 88.3 | > 88.3 | > 88.3 | > 88.3 | > 88.3 | > 88.3 | MIC (Cryptococcus neoformans [17]): > 88.3 µM; MIC (Candida parapsilosis [18]): 88.3 µM (≈ 31.3 µg/mL)
OC(Cn1cncn1)(Cn1cncn1)c1ccc(F)cc1F [FLUCONAZOLE] | – | – | – | – | – | – | – | – | – | – | – | – | – | – | – | – | – | – | – | – | MIC=<50 (Candida parapsilosis [1]): 3.2 µM (≈ 0.98 µg/mL); MIC (Candida albicans [2]): >408.1 µM; MIC=<50 (Candida parapsilosis [4]): 6.4 µM (≈ 1.96 µg/mL); MIC (Candida albicans [5]): >408.1 µM; MIC (Cryptococcus neoformans [6]): >102.1 µM; MIC (Nakaseomyces glabratus [7]): >102.1 µM; MIC=<50 (Candida parapsilosis [9]): 3.2 µM (≈ 0.98 µg/mL); MIC (Nakaseomyces glabratus [11]): >102.1 µM; MIC=<50 (Candida albicans [12]): 50.9 µM (≈ 15.6 µg/mL); MIC=<50 (Pichia kudriavzevii): >102.2 µM; MIC (Candida albicans [13]): >408.1 µM; MIC (Nakaseomyces glabratus [14]): >102.1 µM; MIC (Cryptococcus neoformans [15]): >102.1 µM; MIC (Nakaseomyces glabratus [16]): >=102.2 - 204.1 uM; MIC=<50 (Candida parapsilosis [18]): 3.2 µM (≈ 0.98 µg/mL)
CC[C@H](C)C[C@H](C)CCCCCCCCC(=O)N[C@H]1C[C@@H](O)[C@@H](NCCN)NC(=O)[C@@H]2[C@@H](O)CCN2C(=O)[C@H]([C@H](O)CCN)NC(=O)[C@H]([C@H](O)[C@@H](O)c2ccc(O)cc2)NC(=O)[C@@H]2C[C@@H](O)CN2C(=O)[C@H]([C@@H](C)O)NC1=O [CASPOFUNGIN] | 0.4 (≈ 0.437 µg/mL) | 0.2 (≈ 0.219 µg/mL) | 0.2 (≈ 0.219 µg/mL) | 1.6 (≈ 1.75 µg/mL) | 0.1 (≈ 0.109 µg/mL) | 12.9 (≈ 14.1 µg/mL) | > 25.8 | 0.2 (≈ 0.219 µg/mL) | 0.8 (≈ 0.875 µg/mL) | 0.4 (≈ 0.437 µg/mL) | 0.4 (≈ 0.437 µg/mL) | > 25.8 | 0.8 (≈ 0.875 µg/mL) | 0.05 (≈ 0.0547 µg/mL) | 0.4 (≈ 0.437 µg/mL) | 0.1 (≈ 0.109 µg/mL) | 1.6 (≈ 1.75 µg/mL) | 25.8 (≈ 28.2 µg/mL) | 0.05 (≈ 0.0547 µg/mL) | > 25.8 | MIC (Cryptococcus neoformans [17]): 12.9 µM (≈ 14.1 µg/mL); MIC (Candida parapsilosis [18]): 0.4 µM (≈ 0.437 µg/mL)
CCCCCOCCCCCCNCC(O)(Cn1cncn1)c1ccc(F)cc1F (centres undefined) | 0.28 (≈ 0.119 µg/mL) | > 73.7 | 9.2 (≈ 3.91 µg/mL) | 0.57 (≈ 0.242 µg/mL) | 9.2 (≈ 3.91 µg/mL) | 4.6 (≈ 1.95 µg/mL) | 73.7 (≈ 31.3 µg/mL) | 4.6 (≈ 1.95 µg/mL) | 9.2 (≈ 3.91 µg/mL) | 0.28 (≈ 0.119 µg/mL) | 18.4 (≈ 7.81 µg/mL) | > 73.7 | 73.7 (≈ 31.3 µg/mL) | 73.7 (≈ 31.3 µg/mL) | 4.6 (≈ 1.95 µg/mL) | 36.7 (≈ 15.6 µg/mL) | 36.7 (≈ 15.6 µg/mL) | 4.6 (≈ 1.95 µg/mL) | 9.2 to 36.7 (≈ 3.91 to 15.6 µg/mL) | 18.4 (≈ 7.81 µg/mL) | MIC (Cryptococcus neoformans [17]): 1.1 µM (≈ 0.467 µg/mL); MIC (Candida parapsilosis [18]): 0.28 µM (≈ 0.119 µg/mL)
